Data on 1 compound can be found in article PMC9656482, “In Vitro and In Vivo Biological Activity of Ruthenium 1,10-Phenanthroline-5,6-dione Arene Complexes” (International Journal of Molecular Sciences, 2022).

As usually defined, the IC50 is the concentration needed to halve the response being measured.

Assay [1] concerns doxorubicin-resistant HCT116 (HCT116-Dox). To be noted: read-out: Relative IC50, HCT116-Dox; 48 h incubation, MTS. On the procedure: (§1) The cytotoxic potential of the complexes was evaluated by assessing their viability using the 3-(4,5-dimethylthiazol-2-yl)-5-(3-carboxymethoxyphenyl)-2-(4-sulfophenyl)-2H tetrazolium, inner salt (MTS) colorimetric assay in three tumor cell lines—ovarian carcinoma, A2780, colorectal carcinoma, HCT116, and colorectal carcinoma resistant to doxorubicin, HCT116-Dox and in normal human primary dermal fibroblasts (Figure 1 and Figure S7).
(§2) Normal dermal human fibroblasts, colorectal carcinoma cell line HCT116 and ovarian carcinoma cell line A2780 were acquired from ATCC (Manassas, VA, USA). HCT116 cell lines resistant to doxorubicin (HCT116-Dox) were derived from the HCT116 cell line, as previously described. Fibroblasts and HCT116 cells were cultured in Dulbecco’s modified Eagle medium (DMEM, Thermo Fisher Scientific) and A2780 cell line was cultured on Roswell Park Memorial institute 1640 (RPMI-1640, Thermo Fisher Scientific). Both media were supplemented with 10% (v/v) fetal bovine serum (FBS, Thermo Fisher Scientific) and a mixture of 100 U/mL penicillin and […] streptomycin. The supplemented media are referred to from this point on as DMEM or RPMI for simplicity.

Assay [2] has as its system normal human dermal fibroblasts. As to conditions: read-out: Relative IC50, Fibroblasts; 48 h incubation, MTS. On the procedure:
as §1, §2

Assay [3] has as its system A2780 cells. In words: Apoptosis, Annexin V-Alexa Fluor 488/propidium iodide double staining. The class given is cell-based, human. To be noted: A2780, 48 h, IC50 of the complex. On the procedure:
To understand if the loss of cell viability of an A2780 cell incubated with JHOR11 is due to cell apoptosis, cells were incubated with the IC50 of the complex and then double-stained with Annexin V, conjugated with AlexaFluor 488 and with propidium iodide (PI) to discriminate between live cells (unstained), cells in initial apoptosis (green-stained cells), cells in late apoptosis (double-stained cells) and cells in necrosis (red-stained cells).
The double staining of the A2780 cells incubated with JHOR11 for apoptosis evaluation followed procedures previously described. Briefly, A2780 cells were seeded on 6-well plates in a density of 2 × 10^5 cells/well, and incubated for 48 h with IC50 JHOR11, 0.1% (v/v) DMSO as vector control, and 3.5 µM cisplatin as positive control. Cells were then detached from the wells and double stained using the dead cell apoptosis kits with Annexin V for flow cytometry (Thermo Fisher Scientific) according to manufacturer’s instructions. The percentage of live cells (unstained), cells in initial apoptosis (stained with annexin V-Alexa Fluor 488), cells in late apoptosis (double stained with annexin V-Alexa Fluor 488 and propidium iodide) or cells in necrosis (stained with propidium iodide) was quantified using an Attune acoustic focusing flow cytometer and respective software (Thermo Fisher Scientific).

Assay [4] concerns A2780 cells. Briefly: Mitochondrial membrane potential (JC-1). The class given is cell-based, human. To be noted: A2780, 48 h, IC50 of JHOR11, relative to vehicle control. An excerpt:
This dye accumulates in the mitochondria of cells, presenting red fluorescence, characteristic of the aggregated form (JC-1 aggregated), in healthy cells, and green fluorescence, characteristic of monomer form (JC-1 monomer), when the mitochondrial membrane is compromised.
The mitochondrial potential was quantified using the JC-1 mitochondrial membrane potential assay kit (Abnova, Taipé, Taiwan) according to manufacturer’s instructions and as previously described. Briefly, 2 × 10^5 A2780 cells were seeded on each well of a 6-well plate and incubated for 48 h with IC50 JHOR11, 0.1% (v/v) DMSO or 3.5 µM cisplatin. Cells with red (JC-1 aggregated) and green (JC-1 monomer) fluorescence were quantified with an Attune acoustic focusing flow cytometer and respective software (Thermo Fisher Scientific), and fluorescence ratios normalized to control samples incubated with DMSO.

In assay [5] the test system is A2780 cells. In words: Production of reactive oxygen species (H2DCF-DA). The class given is cell-based, human. To be noted: A2780, 48 h, IC50 of JHOR11. On the procedure:
Since the cytotoxicity of Ru(II) complexes is commonly accompanied by the induction of reactive oxygen species (ROS), the ROS concentration was quantified in A2780 cells exposed for 48 h to IC50 concentration of JHOR11, using DMSO 0.1% (v/v) as a vehicle control, and 3.5 µM cisplatin and 25 µM hydrogen peroxide (H2O2) as positive controls. The incubation with the dye 2′,7′-dichlorodihydrofluorescein diacetate (H2DCF-DA) that, in the presence of peroxides, emits green fluorescence after oxidation to 2′,7′-dichlorofluorescein (DCF), followed by fluorescence quantification by flow cytometry, allowed us to infer the induction of ROS.
The production of ROS was evaluated using the dye 2′,7′-dichlorodihydrofluorescein diacetate (H2DCF-DA, ThermoFisher Scientific) according to previously described procedures. […] The fluorescence was quantified in an Attune acoustic focusing cytometer and respective software (Thermo Fisher Scientific) and normalized to the fluorescence of vector control sample.

SMILES strings stand for the structures.

As to `Cc1ccc(C(C)C)cc1.F[P-](F)(F)(F)(F)F.O=C1C(=O)c2cccnc2-c2ncccc21.[Cl][Ru+]` [JHOR11], the IC50 in assay [1] is 6.8 ± 0.3 µM; in assay [2] it was 44.5 ± 2.2 µM. For the same compound, the “percentage of apoptotic cells” value in the assay on A2780 cells [3] amounted to 3%. Further, in the assay with A2780 cells [4], the “JC-1 monomer/aggregate fluorescence ratio” value is “decrease in the monomer/aggregate fluorescence ratio (but with no statistical significance)”. Moreover, the “increase in intracellular ROS relative to vector control” value in the assay on A2780 cells [5] amounted to 1.72 ± 0.4 times.
